Data reported in US10124078B2, “Lipid-based nanoparticles” (BOARD OF REGENTS OF THE UNIVERSITY OF HOUSTON SYSTEM, priority 2011, dated 2018).

How the values were obtained:
[1] = biological target: T1, Aβ plaques (Homo sapiens, UniProt P05067); experiment: Ex vivo staining of mouse brain tissue sections (confocal fluorescence), with CG competition; assay type: binding, APP/PSEN1 transgenic mouse
T1 construct: from tissue; host or cells: brain (cortex and hippocampus) of 5 and 7 month old APP/PSEN1 transgenic mice
T1 sequence (P05067 672-713 limits assumed): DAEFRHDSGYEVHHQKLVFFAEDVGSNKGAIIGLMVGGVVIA
Procedure: The mice were engineered to progressively develop cortical and hippocampal plaques in an age-related manner similar to that observed in human AD pathology. Saggital sections (30 μm thick) from euthanized non-transgenic (control), 5, and 7 month old APP/PSEN1 mice were incubated in a 3 mM solution of the liposomes (concentration of Me-XO4 in the solution was 1 μM) for 2 h, at RT. This was followed by extensive washing with PBS to remove unbound liposomes. The stained tissues were mounted with […]® mounting media (Vector Laboratories, Inc., Burlingame, Calif.) to reduce background fluorescence and viewed under a confocal microscope.

[2] = biological target: T2, cortical and hippocampal Aβ plaques (Homo sapiens, UniProt P05067); experiment: In vivo delivery to cortical and hippocampal plaques after tail vein injection, confocal microscopy of brain sections; design: species or system APP/PSEN1 mice; conditions: 48 h after injection
T2 construct: from tissue; host or cells: brain (cortex and hippocampus) of 5 and 7 month old APP/PSEN1 transgenic mice
T2 sequence (P05067 672-713 limits assumed): as above
Procedure: 48 h following injection, the mice were euthanized and their brains sectioned for confocal light microscopic studies. Identical mice were injected with molecular/free methoxy-XO4 ligand to serve as a positive control, and with untargeted liposomes and saline as negative controls.

| in vivo staining of plaques (fluorescence of brain sections) ([2]; 5 month old APP/PSEN1 mice) | SMILES | competition with Me-XO4-labeled liposomes for Aβ plaque deposits: fluorescence intensity and number of labeled plaques ([1]; 1 μM Me-XO4 and increasing concentrations of CG, cortex and hippocampus) | staining of Aβ plaque deposits on brain sections ([1]; 7 month old APP/PSEN1 mice, 30 μm sagittal sections, 1 μM Me-XO4, 2 h, RT) | in vivo staining of plaques (fluorescence of brain sections) ([2]; 7 month old APP/PSEN1 mice) |
| --- | --- | --- | --- | --- |
|  | O=C(O)c1cc(/N=N/c2ccc(-c3ccc(/N=N/c4ccc(O)c(C(=O)O)c4)cc3)cc2)ccc1O [CG, Chrysamine G] | decrease in fluorescence intensity and the number of labeled plaques |  |  |
| no noteworthy fluorescence | COc1cc(/C=C/c2ccc(O)cc2)ccc1/C=C/c1ccc(O)cc1 [free methoxy-XO4 ligand, methoxy-XO4] |  | same plaque deposition pattern was observed | bright staining of both cortical and hippocampal plaques |
